Test results from EP1420018A1, “Pyrido[1,2-a]benzimidazole derivatives useful in treating central nervous system disorders” (Ortho-McNeil Pharmaceutical, Inc., priority 1996, dated 1998).
Counter-ions that a name gives are not always drawn. Like-named read-outs stand apart in the source and are kept apart here.

Experiments:
[1] = tested on: Anxiety in the Adult Male Rat; experiment: Suppression of Anxiety in the Adult Male Rat (rat conflict test); assay type: in vivo, rats; details: Rattus norvegicus
Experimental: Assay to Measure the Suppression of Anxiety in the Adult Male Rat
Male rats were deprived of water for 48 hours and were deprived of food for 24 hours prior to testing. After the first 24 hours of water deprivation, they were placed in the conflict chamber for a training period; wherein, they were allowed 200 unpunished licks from a bottle containing tap water. The experiment was run the next day. At the expected time of peak activity, the animals were placed in the chamber and allowed access to tap water. […] Their first lick initiates a 3-min test session. Subsequently, every 20th lick was punished by a 0.2-s shock delivered via the stainless-steel drinking-tube.
The Wilcoxon rank-sum test (Mann-Whitney U-test) was used to test for an increase (p<0.05, 1-tailed) in the median number of shocks in drug-treated groups, compared to a concurrently run vehicle-treated group. The biological assay is considered to be valid if the effects of a known anxiolytic (positive control) are detected, within the same experiment.

[2] = tested on: metrazol-induced convulsions; experiment: Suppression of Metrazol-Induced Convulsions in Adult Male Mice; assay type: in vivo; details: Mus musculus, po
[3] = tested on: metrazol-induced convulsions; experiment: as above; assay type: in vivo; details: Mus musculus, ip
Experimental: Assay to Determine the Suppression of Metrazol-Induced Convulsions in Adult Male Mice
Male CD1 mice, were fasted at least 16 hours, were divided into equal groups and test compounds or vehicle were administered parenterally. Water was not withheld except during the period of observations. […] Metrazol was dissolved in 0.9% sodium chloride solution, and its dose volume was 10 ml/kg. Animals were housed individually for observation of clonic convulsions, tonic convulsions and death for a period of 30 min. […] The biological assay was considered to be valid if the effects of a known anticonvulsant (positive control) were detected, within the same experiment. Activity was reported as percent reduction of clonic convulsions from the vehicle group.

[4] = target: benzodiazepine site of the GABA-A receptor; experiment: Benzodiazepine Receptor Binding Assay (inhibition of 3H-flunitrazepam binding); details: read-out: GABAA Receptor Binding IC50
[5] = ip, rat, ip, read-out: Rat Conflict (MED, mg/kg) ip
[6] = po, rat, po, read-out: Rat Conflict (MED, mg/kg) po
[7] = ip, minimum effective dose, increase in shocks tolerated, >10 = active dose not determined, read-out: Rat Conflict (MED, mg/kg) ip
[8] = po, minimum effective dose, increase in shocks tolerated, >10 = active dose not determined, read-out: Rat Conflict (MED, mg/kg) po
[9] = block of clonic convulsions, male CD1 mice, >30 = active dose not determined
[10] = inhibition of 3H-flunitrazepam (ca. 3 nM) binding to membranes, 25°C, over 10,000 = not active

IC50 [4]	IC50 [4, 10]	SMILES	minimal effective dose [1, 5]	ED50 ([2]; mouse)	ED50 ([3]; mouse)	minimal effective dose [1, 6]	minimal effective dose [1, 7]	minimal effective dose [1, 8]	ED50 [2, 9]	ED50 [3, 9]
6.32 nM		O=C(CN1C2=C(C(=O)Nc3ccccc3F)C(=O)CCN2c2ccc(F)cc21)Nc1ccccc1F [Compound 61, 7-Fluoro-1,2-dihydro-5-[N-(2-fluorophenyl)-2-acetamido]-3-oxo-N-(2-fluorophenyl)pyrido[1,2-a]benzimidazole-4-carboxamide]	> 10 mg/kg	30 mg/kg	< 1 mg/kg					
7.69 nM		CN(CCN1C2=C(C(=O)Nc3ccccc3F)C(=O)CCN2c2ccc(F)cc21)Cc1ccc(F)cc1 [Compound 62]	< 10 mg/kg	30 mg/kg	3 mg/kg	> 10 mg/kg				
3.02 nM		O=C1CCN2C(=C1C(=O)Nc1ccccc1F)N(CCN(Cc1ccccc1)Cc1ccccc1)c1cc(F)ccc12 [Compound 64]	> 10 mg/kg	> 30 mg/kg	3 mg/kg					
11 nM		CN(CCN1C2=C(C(=O)Nc3c(F)cccc3F)C(=O)CCN2c2ccc(F)cc21)Cc1ccc(F)cc1 [Compound 65]	> 10 mg/kg	> 30 mg/kg	> 10 mg/kg					
83.7 nM		CN(C)CCCN1C2=C(C(=O)Nc3c(F)cccc3F)C(=O)CCN2c2ccc(F)cc21 [Compound 66]	> 10 mg/kg	> 10 mg/kg	> 30 mg/kg					
3.29 nM		CN(C)CCCN1C2=C(C(=O)Nc3ccccc3F)C(=O)CCN2c2ccc(F)cc21 [Compound 67]	10 mg/kg	30 mg/kg	3 mg/kg	> 10 mg/kg				
44.6 nM		CC(C)N(CCN1C2=C(C(=O)Nc3c(F)cccc3F)C(=O)CCN2c2ccc(F)cc21)C(C)C [Compound 68]	10 mg/kg	> 30 mg/kg	> 10 mg/kg					
78.4 nM		CC(C)N(CCN1C2=C(C(=O)Nc3ccccc3F)C(=O)CCN2c2ccc(F)cc21)C(C)C [Compound 69]	> 10 mg/kg	> 30 mg/kg	1 mg/kg					
267 nM		CCN(CC)CCN1C2=C(C(=O)Nc3c(F)cccc3F)C(=O)CCN2c2ccc(F)cc21 [Compound 70]	> 10 mg/kg	> 30 mg/kg	> 10 mg/kg					
74.5 nM		CCN(CC)CCN1C2=C(C(=O)Nc3ccccc3F)C(=O)CCN2c2ccc(F)cc21 [Compound 71]	< 10 mg/kg	10 mg/kg	2 mg/kg	> 10 mg/kg				
3840 nM		CN(C)CCN1C2=C(C(=O)Nc3ccncc3)C(=O)CCN2c2ccccc21 [Compound 72]	> 10 mg/kg	> 30 mg/kg	> 10 mg/kg					
32.1 nM		CN(C)CCN1C2=C(C(=O)Nc3c(F)cccc3F)C(=O)CCN2c2ccc(F)cc21 [Compound 73]	> 10 mg/kg	> 30 mg/kg	> 10 mg/kg					
49.9 nM		CN(C)CCN1C2=C(C(=O)Nc3ccccc3F)C(=O)CCN2c2ccc(F)cc21 [Compound 74, 7-Fluoro-1,2-dihydro-5-(2-dimethylaminoethyl)-3-oxo-N-(2-fluorophenyl)pyrido[1,2-a]benzimidazole-4-carboxamide hydrochloride hydrate (4:4:1)]	< 10 mg/kg	< 3 mg/kg	0.5 mg/kg	3 mg/kg				
9.5 nM		O=C1CCN2C(=C1C(=O)Nc1ccccc1F)N(CCNC(=O)c1cccc(C(F)(F)F)c1)c1cc(F)ccc12 [Compound 75]		> 30 mg/kg	> 1 mg/kg	> 10 mg/kg				
40.9 nM		O=C1CCN2C(=C1C(=O)Nc1ccccc1F)N(CCNC(=O)c1ccccc1C(F)(F)F)c1cc(F)ccc12 [Compound 76]		> 30 mg/kg	> 1 mg/kg	> 10 mg/kg				
0.86 nM		N#CCN1C2=C(C(=O)NC3CC3)C(=O)CCN2c2ccc(F)cc21 [Compound 77]		> 30 mg/kg	< 1 mg/kg	> 10 mg/kg				

IC50 [4]	IC50 [4, 10]	SMILES	minimal effective dose [1, 5]	ED50 ([2]; mouse)	ED50 ([3]; mouse)	minimal effective dose [1, 6]	minimal effective dose [1, 7]	minimal effective dose [1, 8]	ED50 [2, 9]	ED50 [3, 9]
30 nM		N#CCN1C2=C(C(=O)NC3CCCCC3)C(=O)CCN2c2ccc(F)cc21 [Compound 78]		> 30 mg/kg	> 1 mg/kg	> 10 mg/kg				
10.5 nM		CC(C)NC(=O)NCCN1C2=C(C(=O)Nc3ccccc3F)C(=O)CCN2c2ccc(F)cc21 [Compound 79]		> 30 mg/kg	> 1 mg/kg	> 10 mg/kg				
3.7 nM		CC(C)(C)OC(=O)N1CCN(CCN2C3=C(C(=O)Nc4ccccc4F)C(=O)CCN3c3ccc(F)cc32)CC1 [Compound 80]		> 30 mg/kg	> 1 mg/kg	> 10 mg/kg				
12.7 nM		O=C1CCN2C(=C1C(=O)Nc1ccccc1F)N(CCN1CCNCC1)c1cc(F)ccc12 [Compound 81]		> 30 mg/kg	> 1 mg/kg	> 10 mg/kg				
36.2 nM		CN(C)c1ccc(CCN2C3=C(C(=O)Nc4c(F)cccc4F)C(=O)CCN3c3ccc(F)cc32)cc1 [Compound 83]	> 10 mg/kg	< 30 mg/kg	3 mg/kg					
8.52 nM		CN(C)c1ccc(CCN2C3=C(C(=O)Nc4ccccc4F)C(=O)CCN3c3ccc(F)cc32)cc1 [Compound 84]	> 10 mg/kg	< 30 mg/kg	1 mg/kg					
	30.7 nM	CN1CCCC(N2C3=C(C(=O)Nc4ccccc4F)C(=O)CCN3c3ccc(F)cc32)C1 (centres unmarked) [Compound 87]					> 10 mg/kg	> 10 mg/kg	10 mg/kg	3 mg/kg
	3.67 nM	O=C1CCN2C(=C1C(=O)Nc1ccccc1F)N(CCN1CCOCC1)c1cc(F)ccc12 [Compound 88]					> 10 mg/kg	10 mg/kg	7 mg/kg	0.1 mg/kg
	1.84 nM	N#CCN1C2=C(C(=O)Nc3ccccc3F)C(=O)CCN2c2ccc(F)cc21 [Compound 89]						1 mg/kg	0.5 mg/kg	< 1 mg/kg
	6.04 nM	COc1cccc(NC(=O)C2=C3N(CC#N)c4ccccc4N3CCC2=O)c1 [Compound 90]						1 mg/kg	0.5 mg/kg	< 1 mg/kg
4.35 nM		CCOCN1C2=C(C(=O)Nc3ccc(OC(=O)OC)cc3F)C(=O)CCN2c2ccc(F)cc21 [Compound 100]		3 to 30 mg/kg	≥ 1 mg/kg	~1 mg/kg				
0.95 nM		CCOCN1C2=C(C(=O)Nc3ccc(C)s3)C(=O)CCN2c2ccccc21 [Compound 101]		< 3 mg/kg	< 1 mg/kg	3 mg/kg				
8.82 nM		COCCN1C2=C(C(=O)Nc3nccs3)C(=O)CCN2c2ccccc21 [Compound 102]		~6 mg/kg	~1 mg/kg	10 mg/kg				
0.55 nM		CCOCN1C2=C(C(=O)Nc3ccccc3F)C(=O)CCN2c2ccc(F)c(F)c21 [Compound 103]		< 3 mg/kg	< 1 mg/kg	1 mg/kg				
1.04 nM		CCOCN1C2=C(C(=O)Nc3ccc(OC)cc3)C(=O)CCN2c2ccc(F)cc21 [Compound 104]		< 3 mg/kg	< 1 mg/kg	0.1 mg/kg				
0.84 nM		CCOCN1C2=C(C(=O)Nc3cccs3)C(=O)CCN2c2ccccc21 [Compound 105]		< 3 mg/kg	< 1 mg/kg	10 mg/kg				
